The source of these data is EPA's ToxValDB 9.5 (doi:10.2903/j.efsa.2015.4077).

A word on the NOAEL: it is the highest dose or exposure tested at which no adverse effect was seen.

Some results are limits rather than exact numbers.

One data set deals with Colinus virginianus. The note with it: acute, oral.
In the next data set the test system is Canidae. The note with it: chronic; duration: 1 years; oral; Dog Other; organ weight.
A further data set deals with Oncorhynchus mykiss. The following applies: acute; duration: 96 hours; mortality.
The subject of another data set is Pontoscolex corethrurus. The note with it: acute; duration: 14 days; mortality.
The test system of the next data set is Apis mellifera. The following applies: acute; oral; unspecified; mortality.
The test system of another data set is Daphnia magna. The note with it: chronic/long-term; duration: 21 days.
The subject of a further data set is Pimephales promelas. The following applies: chronic/long-term; duration: 35 days; other.
A further data set relates to Anas platyrhynchos. The note with it: reproductive.
The next data set concerns Aphidius rhopalosiphi. The data set is described as follows: LR50; higher = less toxic. The note with it: not reported; mortality.
A further data set deals with Typhlodromus pyri. The data set is described as follows: LR50; higher = less toxic. The following applies: not reported; mortality.

As to `CC(C)N1C(=O)c2ccccc2NS1(=O)=O` [Bentazone], the LD50 is 565 mg/kg-day in the data set with Colinus virginianus; above 200 µg/piece with Apis mellifera; 1640 mg/kg-day in the data set with Rattus norvegicus (acute, M/F). The LC50 with Colinus virginianus (diet) is above 500 mg/kg; with Oncorhynchus mykiss it was above 48.6 µg/mL; in the data set on Pontoscolex corethrurus, above 1000 mg/kg. The NOAEL stood at 13 mg/kg-day in the data set with Canidae; 9 mg/kg-day in the data set with Rattus norvegicus (chronic, duration: 2 years, other); 100 mg/kg-day with Rattus norvegicus (developmental, development); 10.3 mg/kg-day with Rattus norvegicus (reproduction developmental); 56 mg/kg-day in the data set with Anas platyrhynchos. Further, the NOEC is above 101 mg/L with Daphnia magna and 10 mg/L in the data set on Pimephales promelas. Besides, the LR50 stood at 699 g/ha with Aphidius rhopalosiphi and 2800 g/ha in the data set with Typhlodromus pyri.
